According to ChEMBL document CHEMBL1133279, “Aminoalkyl adenylate and aminoacyl sulfamate intermediate analogues differing greatly in affinity for their cognate Staphylococcus aureus aminoacyl tRNA synthetases” (Bioorg Med Chem Lett, 2000):

How the values were obtained:
[1] = system: Histidyl-tRNA synthetase (Staphylococcus aureus); assay: Inhibitory activity against cognate Staphylococcus aureus Histidyl-tRNA synthetase at 300 uM
[2] = system: Threonyl-tRNA synthetase (Staphylococcus aureus); assay: Inhibitory activity against cognate Staphylococcus aureus threonyl tRNA synthetase at 300 uM

Work on `Nc1ncnc2c1ncn2[C@@H]1O[C@H](COP(=O)(O)OC[C@@H](N)Cc2c[nH]cn2)[C@@H](O)[C@H]1O` yielded an inhibition [1] of 20%.

For `C[C@@H](O)[C@H](N)COP(=O)(O)OC[C@H]1O[C@@H](n2cnc3c(N)ncnc32)[C@H](O)[C@@H]1O`, the inhibition [2] was 60%.
